In ChEMBL document CHEMBL1201862, “PubChem BioAssay data set” (2004):
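48-hour exposure; five concentrations; linearly interpolated endpoints. GI50: concentration for 50% inhibition of growth.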 The source made the active and inactive calls. Cut-off read from the data, not from the text of the source: active = GI50 up to about 1.1 µM and inactive = higher.

Columns and labels:
Test in all cases: growth of human tumour cells (NCI), 48 h
A498 = test system: A498
A549 = test system: A549
CAKI-1 = test system: CAKI-1
CCRF-CEM = test system: CCRF-CEM
HCT-116 = test system: HCT-116
HOP-92 = test system: HOP-92
HT-29 = test system: HT-29
K562 = test system: K562
MCF7 = test system: MCF7
MOLT-4 = test system: MOLT-4
NCI-H226 = test system: NCI-H226
NCI-H522 = test system: NCI-H522
NCI/ADR-RES = test system: NCI/ADR-RES
OVCAR-3 = test system: OVCAR-3
PC-3 = test system: PC-3
SK-MEL-5 = test system: SK-MEL-5
U-251 = test system: U-251
UO-31 = test system: UO-31
OVCAR-5 = test system: OVCAR-5
SNB-75 = test system: SNB-75

| SMILES | GI50 (A498) | GI50 (A549) | GI50 (CAKI-1) | GI50 (CCRF-CEM) | GI50 (HCT-116) | GI50 (HOP-92) | GI50 (HT-29) | GI50 (K562) | GI50 (MCF7) | GI50 (MOLT-4) | GI50 (NCI-H226) | GI50 (NCI-H522) | GI50 (NCI/ADR-RES) | GI50 (OVCAR-3) | GI50 (PC-3) | GI50 (SK-MEL-5) | GI50 (U-251) | GI50 (UO-31) | GI50 (OVCAR-5) | GI50 (SNB-75) |
| --- | --- | --- | --- | --- | --- | --- | --- | --- | --- | --- | --- | --- | --- | --- | --- | --- | --- | --- | --- | --- |
| Cc1cccc2c(=O)c3cccc(CC(=O)O)c3oc12 | > 100 µM (inactive) | > 100 µM (inactive) | > 100 µM (inactive) | > 100 µM (inactive) | > 100 µM (inactive) | > 100 µM (inactive) | > 100 µM (inactive) | > 100 µM (inactive) | > 100 µM (inactive) | > 100 µM (inactive) | > 100 µM (inactive) | > 100 µM (inactive) | > 100 µM (inactive) | > 100 µM (inactive) | > 100 µM (inactive) | > 100 µM (inactive) | > 100 µM (inactive) | > 100 µM (inactive) |  |  |
| CC1=NN(C(=O)CC(=O)Nc2ccccc2)C(=O)C1/N=N/c1ccc(C(=O)O)cc1 (stereo not drawn) | > 100 µM (inactive) | > 100 µM (inactive) | > 100 µM (inactive) | > 100 µM (inactive) | > 100 µM (inactive) | 22.1 µM (inactive) | > 100 µM (inactive) | > 100 µM (inactive) | > 100 µM (inactive) | > 100 µM (inactive) |  | > 100 µM (inactive) | > 100 µM (inactive) | > 100 µM (inactive) | > 100 µM (inactive) | > 100 µM (inactive) | 97.3 µM (inactive) | > 100 µM (inactive) | > 100 µM (inactive) | > 100 µM (inactive) |
| COc1ccc2o/c(=N/c3ccccc3)c(C(N)=O)cc2c1 |  | > 55.3 µM (inactive) | > 71.3 µM (inactive) | > 100 µM (inactive) | > 69.8 µM (inactive) | > 50.9 µM (inactive) |  | > 100 µM (inactive) | 45.9 µM (inactive) | > 100 µM (inactive) | > 85.3 µM (inactive) | > 54.8 µM (inactive) | > 69.8 µM (inactive) | > 100 µM (inactive) | > 100 µM (inactive) | > 100 µM (inactive) | > 79.1 µM (inactive) | > 36.7 µM (inactive) | > 100 µM (inactive) | 53.7 µM (inactive) |
| O=C(O)c1cc(NCc2cc(O)ccc2O)ccc1O [LAVENDUSTIN C] | > 100 µM (inactive) | > 100 µM (inactive) | > 100 µM (inactive) | 10.6 µM (inactive) | 49.9 µM (inactive) | > 100 µM (inactive) | > 100 µM (inactive) |  | > 100 µM (inactive) |  | > 100 µM (inactive) | 16.2 µM (inactive) | > 100 µM (inactive) | > 100 µM (inactive) | > 100 µM (inactive) | > 100 µM (inactive) | > 100 µM (inactive) | 67.1 µM (inactive) | > 100 µM (inactive) | > 100 µM (inactive) |
| CC1(C)C(=O)C2(OS(=O)(=O)C(F)(F)F)CCC1C2 (stereo not drawn) | > 100 µM (inactive) | > 100 µM (inactive) | > 100 µM (inactive) | > 100 µM (inactive) | > 100 µM (inactive) | > 100 µM (inactive) | > 100 µM (inactive) | > 100 µM (inactive) | > 100 µM (inactive) | > 100 µM (inactive) | > 100 µM (inactive) |  | > 100 µM (inactive) | > 100 µM (inactive) | > 100 µM (inactive) | > 100 µM (inactive) | > 100 µM (inactive) | > 100 µM (inactive) | > 100 µM (inactive) | > 100 µM (inactive) |
| CCNC(=S)N/N=C/c1cc(OC)ccc1O |  | 52.8 µM (inactive) |  | 66.5 µM (inactive) | 85.5 µM (inactive) | 45.1 µM (inactive) | > 100 µM (inactive) | 97.9 µM (inactive) | 5.74 µM (inactive) | 67.1 µM (inactive) | > 100 µM (inactive) | 65.8 µM (inactive) | 83.6 µM (inactive) | 6.38 µM (inactive) | 56.2 µM (inactive) | > 100 µM (inactive) | 61.4 µM (inactive) | 7.01 µM (inactive) | > 100 µM (inactive) | > 100 µM (inactive) |
| O=C1CCCC2=C1CC1=C(CCCC1=O)N2c1ccccc1C(=O)O | > 100 µM (inactive) | > 100 µM (inactive) | > 100 µM (inactive) | > 100 µM (inactive) |  | > 100 µM (inactive) | > 100 µM (inactive) | > 100 µM (inactive) | > 100 µM (inactive) | > 100 µM (inactive) | > 100 µM (inactive) |  | > 100 µM (inactive) | > 100 µM (inactive) | > 100 µM (inactive) | > 100 µM (inactive) | > 100 µM (inactive) | > 100 µM (inactive) | > 100 µM (inactive) | > 100 µM (inactive) |
| COc1ccccc1NC(=S)N/N=C(/C)c1ccccn1 |  | < 0.0274 µM (active) | 0.0132 µM (active) | < 0.01 µM (active) | < 0.01 µM (active) | 6.93 µM (inactive) | < 0.01 µM (active) | < 0.01 µM (active) | < 0.01 µM (active) | < 0.01 µM (active) |  |  | < 0.01 µM (active) | < 0.01 µM (active) | < 0.01 µM (active) | < 0.041 µM (active) | < 0.0172 µM (active) | 1.37 µM (inactive) |  | 1.45 µM (inactive) |
| COc1cc2c(cc1OCCCC(=O)Nc1cc(C(=O)NCCCN(C)C)n(C)n1)N=CC1CCCN1C2=O (stereo not drawn) | 2.82 µM (inactive) | > 19.7 µM (inactive) | 21.6 µM (inactive) |  | 12.9 µM (inactive) | 6.56 µM (inactive) | 7.31 µM (inactive) | 0.123 µM (active) | 10.1 µM (inactive) | 0.347 µM (active) |  | 5.37 µM (inactive) | > 33.5 µM (inactive) | 27.5 µM (inactive) | 17.1 µM (inactive) | 5.68 µM (inactive) | 8.77 µM (inactive) | 8.65 µM (inactive) | 10.5 µM (inactive) | 7.85 µM (inactive) |
| CC(O)C(O)C(O)C(/C=N\Nc1ccccc1)=N/Nc1ccccc1 (stereo not drawn) | 9.02 µM (inactive) | 11.4 µM (inactive) | 2.18 µM (inactive) | 18.5 µM (inactive) | 15.3 µM (inactive) | 14.7 µM (inactive) | 15.9 µM (inactive) | 6.78 µM (inactive) | 10.5 µM (inactive) | 18.7 µM (inactive) |  | 8.09 µM (inactive) | 11.2 µM (inactive) | 8.55 µM (inactive) | 15.8 µM (inactive) | 15.1 µM (inactive) | 13.9 µM (inactive) | 12.2 µM (inactive) | 13.9 µM (inactive) | 16.7 µM (inactive) |
| COC(CO[Si](C)(C)N[Si](C)(C)OCC(OC)c1ccccc1)c1ccccc1 (stereo not drawn) | > 100 µM (inactive) | > 100 µM (inactive) | > 100 µM (inactive) | > 100 µM (inactive) | > 100 µM (inactive) | > 100 µM (inactive) |  | > 100 µM (inactive) | > 100 µM (inactive) | > 100 µM (inactive) | > 100 µM (inactive) |  | > 100 µM (inactive) | > 100 µM (inactive) | > 100 µM (inactive) | > 100 µM (inactive) | > 100 µM (inactive) | > 100 µM (inactive) | > 100 µM (inactive) | > 100 µM (inactive) |
| Nc1csc(-c2scc3c2OCCO3)c1N | 17.6 µM (inactive) | 21.4 µM (inactive) | 32.1 µM (inactive) |  | 20 µM (inactive) | 19.4 µM (inactive) | 20.7 µM (inactive) | 24.4 µM (inactive) | 16.4 µM (inactive) | 27.8 µM (inactive) | 17.3 µM (inactive) | 16.3 µM (inactive) | 22.6 µM (inactive) | 14.8 µM (inactive) | 23 µM (inactive) | 14.9 µM (inactive) | 15.6 µM (inactive) | 17.9 µM (inactive) | 17.6 µM (inactive) |  |
| O=c1oc2nc(-c3ccccc3)cc(C(F)(F)F)c2n1Cc1ccccc1 | 2.07 µM (inactive) | 8.69 µM (inactive) | 7.8 µM (inactive) | 7.21 µM (inactive) | 3.13 µM (inactive) | 85.5 µM (inactive) | 3.8 µM (inactive) | 1.53 µM (inactive) | 0.995 µM (active) | 4.21 µM (inactive) | > 100 µM (inactive) | 4.33 µM (inactive) | 3.42 µM (inactive) | 4.06 µM (inactive) | 3.46 µM (inactive) | 5.42 µM (inactive) | 4.8 µM (inactive) |  | > 100 µM (inactive) |  |
| COc1ccc2[nH]c(C(O)(Cc3cccnc3)Cc3cccnc3)cc2c1 | > 100 µM (inactive) | > 100 µM (inactive) | > 100 µM (inactive) | > 100 µM (inactive) | > 100 µM (inactive) | > 100 µM (inactive) | > 100 µM (inactive) | > 100 µM (inactive) | > 100 µM (inactive) | > 100 µM (inactive) | > 100 µM (inactive) |  | > 100 µM (inactive) | > 100 µM (inactive) | > 100 µM (inactive) | > 100 µM (inactive) | > 100 µM (inactive) | > 100 µM (inactive) | > 100 µM (inactive) | > 100 µM (inactive) |
| c1ccc2cc(OCC3CO3)c(OCC3CO3)cc2c1 (stereo not drawn) | 2 µM (inactive) | 3.68 µM (inactive) | 4.09 µM (inactive) | 0.16 µM (active) | 1.3 µM (inactive) | 8.55 µM (inactive) | 7.05 µM (inactive) | 3.73 µM (inactive) | 0.388 µM (active) | 0.562 µM (active) |  | 1.87 µM (inactive) | 4.05 µM (inactive) | 13.4 µM (inactive) | 12.7 µM (inactive) | 9.23 µM (inactive) | 2.9 µM (inactive) | 2.37 µM (inactive) | 11.4 µM (inactive) | 4.84 µM (inactive) |
